This is an account of results in US20190351006A1, “METHODS OF ADMINISTRATION OF NMDA RECEPTOR AGONISTS” (Naurex Inc., priority 2017, published 2019).

The test system of assay [1] is C57BL/6J mice. The assay is described as follows: In vivo microdialysis of neurotransmitter efflux in mPFC and HIP. On the set-up: species or system Male C57BL/6J mice. Particulars: rapastinel 1 mg/kg subcu, ketamine 30 mg/kg. Here is the method:
(§1) Animals: Male C57BL/6J mice 22-25 g (21/2 to 3 month old) were used is these studies. Drugs: Rapastinel was obtained from SAI Life Sciences (India). Rapastinel, PCP, and ketamine were dissolved in 0.9% sterile saline (Sal). PCP and ketamine were administered intraperitoneally (ip), at a volume of 10 mL/kg body weight. Rapastinel was given subcutaneously (subcu), and rapamycin was given intracerebroventricularly (icy). Drug Treatments: Male C57BL/6J mice were randomly assigned to treatment groups of 10 per group. To develop the cognitive deficit, groups of 10 mice were treated with PCP (10 mg/kg i.p., twice a day for 7 days) followed by a 7-day washout period. Following the washout period, the subchronic PCP mice were tested to determine that an NOR deficit had been established. See Rajagopal et al 3,4. See FIG. 7, for treatment schedules. Behavior, in vivo Microdialysis (MD) and ICV Procedures—The procedures have been described in detail in References 3,10,11,12,13. See FIG. 7. for pictorial representations of drug treatment protocols. Rapastinel's ability to restore episodic memory (NOR) and cognitive flexibility (RL), like its antidepressant action in rodents, is mTOR dependent as indicated by blockade by ICV rapamycin. […]

In assay [2] the test system is scPCP-treated mice. Put plainly: Novel object recognition (NOR) in subchronic PCP (scPCP) mice. The format is in vivo, Male C57BL/6J mice. Here is the method: Animals: Male C57BL/6J mice 22-25 g (21/2 to 3 month old) were used is these studies. Drugs: Rapastinel was obtained from SAI Life Sciences (India). Rapastinel, PCP, and ketamine were dissolved in 0.9% sterile saline (Sal). PCP and ketamine were administered intraperitoneally (ip), at a volume of 10 mL/kg body weight. Rapastinel was given subcutaneously (subcu), and rapamycin was given intracerebroventricularly (icy). Drug Treatments: Male C57BL/6J mice were randomly assigned to treatment groups of 10 per group. To develop the cognitive deficit, groups of 10 mice were treated with PCP (10 mg/kg i.p., twice a day for 7 days) followed by a 7-day washout period. Following the washout period, the subchronic PCP mice were tested to determine that an NOR deficit had been established. See Rajagopal et al 3,4. See FIG. 7, for treatment schedules. Behavior, in vivo Microdialysis (MD) and ICV Procedures—The procedures have been described in detail in References 3,10,11,12,13. See FIG. 7. for pictorial representations of drug treatment protocols. Rapastinel's ability to restore episodic memory (NOR) and cognitive flexibility (RL), like its antidepressant action in rodents, is mTOR dependent as indicated by blockade by ICV rapamycin. […] Increase in cortical DA efflux, in transient and subchronic rescue by rapastinel, may be important for triggering neuroplastic changes in AMPAR modulation of the activity of principal neurons in mPFC and HIP.

In assay [3] the test system is scPCP-treated mice. Put plainly: Reversal learning (RL) task in subchronic PCP mice. The format is in vivo, Male C57BL/6J mice. Here is the method: as §1
[4] abbreviates: PCP 10 mg/kg i.p. twice a day for 7 days, then 7-day washout.

Peptide text beside a SMILES is read from it.

Take `CNC1(c2ccccc2Cl)CCCCC1=O` (stereo not drawn) [Ketamine, ketamine, reference compound]: the “Neurotransmitter efflux in mPFC” value in assay [1] is “very large increases in the efflux of ACh, DA, 5-HT, DOPAC, 5-HIAA, and glutamate, and serine”.

In the case of `C[C@@H](O)[C@H](N)C(=O)N1CCC[C@H]1C(=O)N1CCC[C@H]1C(=O)N[C@H](C(N)=O)[C@@H](C)O` [rapastinel] (H-TPPT-NH2), the “Duration of rescue of NOR deficit after subchronic rapastinel, 5 days” value in assay [2] (scPCP mice, 1 mg/kg sc, b.i.d. for 5 days) is “at least 10 weeks”. Besides, in assay [2] (scPCP mice, 1 mg/kg subcu, 30 min before AT), the “NOR deficit (DI), acute rapastinel” value is “rescued NOR deficit”. The “Reversal of scPCP-induced NOR deficit, 5 day vs 3 day treatment” value in assay [2] (scPCP mice, 1 mg/kg subcu, b.i.d. for 5 days) is recorded as “longer compared to 3 day treatment”. In addition, the “NOR after a single acute dose once the subchronic effect had ended” value in assay [2] (scPCP mice, single dose 1 mg/kg sc, 30 min prior to AT, week 10 (or week 11)) is recorded as “restored NOR”. For the same molecule, the “RL deficit (percent correct responses), acute rapastinel” value in assay [3] (scPCP mice, 1 mg/kg sc, 30 min before reversal phase of the RL task) is “rescued RL deficit”. Further, the “Neurotransmitter efflux in mPFC” value in assay [1] is recorded as “small selective increase in DA efflux”.

With `c1ccc(C2(N3CCCCC3)CCCCC2)cc1` [PCP, reference compound], in assay [2] (setting [4]), the “DI in NOR vs vehicle-treated mice” value is reported as “reduced DI”. In assay [3] (setting [4]), the “Percent correct responses in RL vs veh-treated mice” value is “reduced percent correct responses”.
